# Target: SHP2 (Homo sapiens (Human), UniProt Q06124)
# Test: SHP2 allosteric inhibition assay (DiFMUP prompt fluorescence)
# Type: biochemical
# Conditions: not given
# SHP2, sequence (Q06124 whole entry): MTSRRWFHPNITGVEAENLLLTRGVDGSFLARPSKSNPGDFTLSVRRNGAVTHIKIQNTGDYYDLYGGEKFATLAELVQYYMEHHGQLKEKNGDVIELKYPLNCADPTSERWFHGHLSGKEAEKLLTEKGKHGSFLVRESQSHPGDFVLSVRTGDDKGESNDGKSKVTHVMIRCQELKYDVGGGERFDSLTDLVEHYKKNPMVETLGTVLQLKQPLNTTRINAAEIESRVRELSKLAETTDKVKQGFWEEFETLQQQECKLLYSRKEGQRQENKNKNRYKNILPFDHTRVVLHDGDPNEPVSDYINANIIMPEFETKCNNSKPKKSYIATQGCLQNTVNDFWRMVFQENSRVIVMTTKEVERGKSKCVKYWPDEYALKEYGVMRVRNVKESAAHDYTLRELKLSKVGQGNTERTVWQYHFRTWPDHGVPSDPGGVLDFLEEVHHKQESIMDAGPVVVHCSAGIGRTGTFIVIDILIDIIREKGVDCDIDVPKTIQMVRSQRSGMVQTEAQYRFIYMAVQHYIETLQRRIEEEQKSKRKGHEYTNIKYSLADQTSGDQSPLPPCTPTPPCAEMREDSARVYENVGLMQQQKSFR
row,Compound,IC50
1,"Cc1ccc(C(=O)CSc2cnc(N3CCC4(CC3)Cc3ccccc3[C@H]4N)cn2)cc1 [Example 267, (S)-2-((5-(1-amino-1,3-dihydrospiro[indene-2,4′-piperidin]-1′-yl)pyrazin-2-yl)thio)-1-(p-tolyl)ethan-1-one]",< 50 nM

# Same assay, conditions: 0.25 nM SHP2 activated with 0.5 μM peptide IRS1_pY1172(dPEG8)pY1222; substrate DiFMUP
row,Compound,IC50
1,N[C@@H]1c2cc(F)cc(F)c2CC12CCN(c1cnc3c(N4CCCc5ncccc54)n[nH]c3n1)CC2 [Example 109],≤ 50 nM
2,Cn1cnc2ccnc(N3CCC4(CC3)Cc3ccccc3[C@H]4N)c21 [Example 183],> 10000 nM
3,"N[C@H]1c2ccccc2C[C@]12CC[C@@H](c1cnc(SCC3CC3)cn1)CC2 [Example 285, (1r, 4r)-4-{5-[(cyclopropylmethyl)sulfanyl]pyrazin-2-yl}-1′,3′-dihydrospiro[cyclohexane-1,2′-inden]-3′-amine]",≤ 50 nM
4,N[C@@H]1c2ccccc2CC12CCN(c1ccc3c(N4CCCCC4)n[nH]c3n1)CC2 [Example 209],1000 to 10000 nM
5,"N[C@@H]1c2ccccc2CC12CCN(c1cnc3c(C#Cc4ccccc4)n[nH]c3n1)CC2 [Example 143, (S)-1′-(3-(phenylethynyl)-1H-pyrazolo[3,4-b]pyrazin-6-yl)-1,3-dihydrospiro[indene-2,4′-piperidin]-1-amine]",≤ 50 nM
6,"N[C@@H]1c2ccccc2CC12CCN(c1cnc(C(=O)c3ccccc3)cn1)CC2 [Example 256, (S)-(5-(1-amino-1,3-dihydrospiro[indene-2,4′-piperidin]-1′-yl)pyrazin-2-yl)(phenyl)methanone]",≤ 50 nM
7,Cn1cc(-c2ccc3c(n2)CCCN3c2n[nH]c3nc(N4CCC5(CC4)Cc4cccnc4C5N)cnc23)cn1 (centres unmarked) [Example 46],≤ 50 nM
8,N[C@@H]1c2ccccc2CC12CCN(c1ncc(N3CCCc4ccccc43)c(=O)[nH]1)CC2 [Example 210],> 10000 nM
9,N[C@@H]1c2cccc(F)c2OC12CCN(c1cnc3c(N4CCCc5ncccc54)n[nH]c3n1)CC2 [Example 54],≤ 50 nM
10,CN(C)C(=O)c1ccc2c(c1)[C@H](N)C1(CCN(c3cnc4c(N5CCCc6ncccc65)n[nH]c4n3)CC1)C2 [Example 28],≤ 50 nM
11,Cn1c(N2CCC3(CC2)Cc2ccccc2[C@H]3N)ncc(SCC2CC2)c1=O [Example 238],≤ 50 nM
12,"Nc1nccc(Sc2cnc(N3CCC4(CC3)Cc3ccccc3[C@H]4N)cn2)c1Cl [Example 81, (S)-1′-(5-((2-amino-3-chloropyridin-4-yl)thio)pyrazin-2-yl)-1,3-dihydrospiro[indene-2,4′-piperidin]-1-amine]",≤ 50 nM
13,Cn1nccc1-c1cc(N2CCC3(CC2)Cc2ccccc2[C@H]3N)cn2ccnc12 [Example 201],≤ 50 nM
14,CO[C@H]1C[C@H](N2CCN(c3n[nH]c4nc(N5CCC6(CC5)Cc5ccccc5C6N)cnc34)c3ccc(C#N)cc32)C1 (some centres unmarked) [Example 33],≤ 50 nM
15,"Cc1cnc(CO)c(N2CCC3(CC2)Cc2ccccc2[C@@H]3N)n1 (single isomer, unassigned) [Example 121]",≤ 50 nM
16,N[C@H]1c2ccccc2CC12CCN(c1cnc3c(-c4ccnc(Cl)c4Cl)n[nH]c3n1)CC2 [Example 71],≤ 50 nM
17,Cn1ccc2c(c1=O)CCCN2c1n[nH]c2nc(N3CCC4(CC3)Oc3ccccc3[C@H]4N)cnc12 [Example 57],≤ 50 nM
18,Cn1ccc2c(c1=O)CCCN2c1n[nH]c2nc(N3CCC4(CC3)Cc3cc(F)ccc3[C@H]4N)cnc12 [Example 52],≤ 50 nM
19,N[C@@H]1c2ccccc2CC12CCN(c1cnc3c(N4CCCc5nc(-c6ncco6)ccc54)n[nH]c3n1)CC2 [Example 37],≤ 50 nM
20,"N[C@@H]1c2ccccc2CC12CCN(c1cnc3c(Oc4cc[nH]c(=O)c4Cl)n[nH]c3n1)CC2 [Example 135, 4-({6-[(3S)-3-amino-1,3-dihydrospiro[indene-2,4′-piperidin]-1′-yl]-1H-pyrazolo[3,4-b]pyrazin-3-yl}oxy)-3-chloro-1,2-dihydropyridin-2-one]",≤ 50 nM
21,"C[C@@H](O)c1nc(Sc2ccnc(Cl)c2Cl)cnc1N1CCC2(CC1)Cc1ccccc1[C@H]2N [Example 259, (1R)-1-{3-[(3S)-3-amino-1,3-dihydrospiro[indene-2,4′-piperidin]-1′-yl]-6-[(2,3-dichloropyridin-4-yl)sulfanyl]pyrazin-2-yl}ethan-1-ol]",≤ 50 nM
22,Cc1c(Sc2ccnc(N)c2Cl)nc2sc(N3CCC4(CC3)Cc3ccccc3[C@H]4N)nn12 [Example 223],≤ 50 nM
23,"N[C@@H]1c2ccccc2CC12CCN(c1cnc(Sc3ccnc(Cl)c3Cl)cn1)CC2 [Example 130, (3S)-1′-{5-[(2,3-dichloropyridin-4-yl)sulfanyl]pyrazin-2-yl}-1,3-dihydrospiro[indene-2,4′-piperidin]-3-amine]",≤ 50 nM
24,"Cc1nc2c(C3=CCOCC3)n[nH]c2nc1N1CCC2(CC1)Cc1ccccc1[C@H]2N [Example 167, (3S)-1′-[3-(3,6-dihydro-2H-pyran-4-yl)-5-methyl-1H-pyrazolo[3,4-b]pyrazin-6-yl]-1,3-dihydrospiro[indene-2,4′-piperidin]-3-amine]",≤ 50 nM
25,"N[C@@H]1c2ccccc2CC12CCN(c1ncc(-c3ccccc3Cl)s1)CC2 [Example 145, (S)-1′-(5-(2-chlorophenyl)thiazol-2-yl)-1,3-dihydrospiro[indene-2,4′-piperidin]-1-amine]",≤ 50 nM
26,Cn1ncc2c(N3CCC4(CC3)Cc3ccccc3[C@H]4N)ncnc21 [Example 181],1000 to 10000 nM

# System: HuH-7 (hepatocellular carcinoma cells)
# Test: Combination growth inhibition (isobologram), HuH-7
# Type: cell-based
# Conditions: AZD-4547 (FGFR inhibitor) combined with a SHP2 inhibitor of the instant disclosure; HuH-7 cells; FIG. 3
row,Compound,growth inhibition (isobologram)
1,COc1cc(CCc2cc(NC(=O)c3ccc(N4CC(C)NC(C)C4)cc3)n[nH]2)cc(OC)c1 (centres unmarked) [AZD-4547],synergistic growth inhibition

# System: NCI—H23 (KRAS G12C mutant non-small cell lung cancer cells)
# Test: Combination growth inhibition (isobologram), NCI-H23
# Type: cell-based
# Conditions: ARS-1620 (KRAS G12C inhibitor) combined with a SHP2 inhibitor of the instant disclosure, FIG. 2B
row,Compound,growth inhibition (isobologram)
1,C=CC(=O)N1CCN(c2ncnc3c(F)c(-c4c(O)cccc4F)c(Cl)cc23)CC1 [ARS-1620],synergistic growth inhibition

# System: NCI—H3122 (non-small cell lung cancer cells)
# Test: Combination growth inhibition (isobologram), NCI-H3122
# Type: cell-based
# Conditions: crizotinib (ALK inhibitor) combined with a SHP2 inhibitor of the instant disclosure, FIG. 1B
row,Compound,growth inhibition (isobologram)
1,C[C@@H](Oc1cc(-c2cnn(C3CCNCC3)c2)cnc1N)c1c(Cl)ccc(F)c1Cl [crizotinib],synergistic growth inhibition

# System: NCI—N87 (gastric cancer cells)
# Test: Combination growth inhibition (isobologram), NCI-N87
# Type: cell-based
# Conditions: selumetinib (MEK inhibitor) combined with a SHP2 inhibitor of the instant disclosure, FIG. 2A
row,Compound,growth inhibition (isobologram)
1,Cn1cnc2c(F)c(Nc3ccc(Br)cc3Cl)c(C(=O)NOCCO)cc21 [selumetinib],synergistic growth inhibition

# System: KYSE520
# Test: Combination growth inhibition (isobologram), KYSE520
# Type: cell-based
# Conditions: erlotinib (EGFR inhibitor) combined with a SHP2 inhibitor of the instant disclosure; KYSE520 cells; FIG. 1A
row,Compound,growth inhibition (isobologram)
1,C#Cc1cccc(Nc2ncnc3cc(OCCOC)c(OCCOC)cc23)c1 [erlotinib],synergistic growth inhibition

# Reference: US10934302B1, “SHP2 phosphatase inhibitors and methods of use thereof” (Relay Therapeutics, Inc., priority 2018, dated 2021)
